This note sets out measurements from ChEMBL document CHEMBL1909046, “DrugMatrix in vitro pharmacology data”.

As a reminder, the IC50 is the concentration needed to halve the response being measured.

In test [1] the target is Sodium-dependent dopamine transporter (Homo sapiens, UniProt Q01959). As to the kind of experiment: DRUGMATRIX: Dopamine Transporter radioligand binding (ligand: [125I] RTI-55). Conditions: cho-k1; Not Active = under 50% inhibition at 10 µM. In kind it is cell membranes, CHO-K1, Membrane.
In test [2] the target is Tyrosine-protein kinase Fyn (Homo sapiens, UniProt P06241). As to the kind of experiment: biochemical. The class given is cell-based, Insect cells.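 Also: enzymatic inhibition of Fyn kinase activity measured with Poly(Glu:Tyr) as the phosphorylation substrate; in other assays of this panel Not Active means under 50% inhibition at 10 µM.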
The target in test [3] is Delta-type opioid receptor (Homo sapiens, UniProt P41143). In kind it is cell membranes, HEK293, Membrane. Conditions: hek293. Also: in other assays of this panel Not Active means under 50% inhibition at 10 µM.
In test [4] the target is Beta-3 adrenergic receptor (Homo sapiens, UniProt P13945). As to the kind of experiment: DRUGMATRIX: Adrenergic beta3 radioligand binding (ligand: [125I] Cyanopindolol). The class given is cell membranes, HEK293, Membrane. Conditions: hek293; Not Active = under 50% inhibition at 10 µM.
Test [5] in a line: DRUGMATRIX: Glutamate, NMDA, Phencyclidine radioligand binding (ligand: [3H] TCP). In kind it is cell membranes, Rattus norvegicus, Wistar, Cerebral cortex, Membrane. Conditions: Not Active = under 50% inhibition at 10 µM.
Test [6] addresses T1, Polyunsaturated fatty acid lipoxygenase ALOX15 (Oryctolagus cuniculus, UniProt P12530).
T1 sequence (P12530 whole entry): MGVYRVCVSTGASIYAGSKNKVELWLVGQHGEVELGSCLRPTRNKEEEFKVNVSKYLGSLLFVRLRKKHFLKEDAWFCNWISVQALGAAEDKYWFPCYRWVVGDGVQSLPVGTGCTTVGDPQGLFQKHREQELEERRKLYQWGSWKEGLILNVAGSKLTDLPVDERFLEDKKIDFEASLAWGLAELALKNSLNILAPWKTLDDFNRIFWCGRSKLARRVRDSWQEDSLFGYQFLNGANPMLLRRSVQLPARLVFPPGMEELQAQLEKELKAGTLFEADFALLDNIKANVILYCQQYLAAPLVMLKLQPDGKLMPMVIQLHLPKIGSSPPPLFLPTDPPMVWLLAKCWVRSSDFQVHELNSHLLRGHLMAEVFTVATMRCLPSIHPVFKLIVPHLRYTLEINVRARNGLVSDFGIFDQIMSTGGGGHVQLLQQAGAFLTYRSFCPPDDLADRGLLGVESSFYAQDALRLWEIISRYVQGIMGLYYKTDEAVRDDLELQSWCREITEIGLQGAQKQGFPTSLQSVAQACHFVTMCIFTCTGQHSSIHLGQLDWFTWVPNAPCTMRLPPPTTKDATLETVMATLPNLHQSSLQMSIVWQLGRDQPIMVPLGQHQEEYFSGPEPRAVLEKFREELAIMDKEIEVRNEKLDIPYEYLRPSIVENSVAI
The test can be described thus: biochemical. In kind it is tissue-based, Reticulocytes.

Chain of Beta-3 adrenergic receptor (P13945 whole entry): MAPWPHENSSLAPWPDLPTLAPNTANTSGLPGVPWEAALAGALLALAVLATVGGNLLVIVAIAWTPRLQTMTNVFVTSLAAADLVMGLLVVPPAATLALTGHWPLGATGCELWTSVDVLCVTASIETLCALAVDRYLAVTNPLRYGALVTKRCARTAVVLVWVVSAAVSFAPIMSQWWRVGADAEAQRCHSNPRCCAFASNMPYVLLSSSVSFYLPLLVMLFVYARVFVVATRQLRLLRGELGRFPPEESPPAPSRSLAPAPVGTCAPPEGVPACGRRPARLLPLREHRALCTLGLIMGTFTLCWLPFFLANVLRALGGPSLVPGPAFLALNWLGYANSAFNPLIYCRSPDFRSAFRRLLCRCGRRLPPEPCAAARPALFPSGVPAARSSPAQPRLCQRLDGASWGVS
Chain of Tyrosine-protein kinase Fyn (P06241 whole entry): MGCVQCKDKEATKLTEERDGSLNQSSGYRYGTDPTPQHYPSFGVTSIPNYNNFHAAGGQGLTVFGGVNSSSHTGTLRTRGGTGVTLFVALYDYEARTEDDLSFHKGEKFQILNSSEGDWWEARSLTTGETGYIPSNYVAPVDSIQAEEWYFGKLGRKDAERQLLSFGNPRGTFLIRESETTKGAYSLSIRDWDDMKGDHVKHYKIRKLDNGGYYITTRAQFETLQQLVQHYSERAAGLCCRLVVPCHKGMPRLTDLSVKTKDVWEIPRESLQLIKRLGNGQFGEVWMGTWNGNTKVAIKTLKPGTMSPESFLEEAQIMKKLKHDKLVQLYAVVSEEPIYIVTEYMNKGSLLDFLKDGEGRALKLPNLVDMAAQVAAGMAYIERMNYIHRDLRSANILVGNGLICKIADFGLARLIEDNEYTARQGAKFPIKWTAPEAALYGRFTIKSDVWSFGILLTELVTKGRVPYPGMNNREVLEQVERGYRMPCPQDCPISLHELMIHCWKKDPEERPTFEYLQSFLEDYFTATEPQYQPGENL
Chain of Delta-type opioid receptor (P41143 whole entry): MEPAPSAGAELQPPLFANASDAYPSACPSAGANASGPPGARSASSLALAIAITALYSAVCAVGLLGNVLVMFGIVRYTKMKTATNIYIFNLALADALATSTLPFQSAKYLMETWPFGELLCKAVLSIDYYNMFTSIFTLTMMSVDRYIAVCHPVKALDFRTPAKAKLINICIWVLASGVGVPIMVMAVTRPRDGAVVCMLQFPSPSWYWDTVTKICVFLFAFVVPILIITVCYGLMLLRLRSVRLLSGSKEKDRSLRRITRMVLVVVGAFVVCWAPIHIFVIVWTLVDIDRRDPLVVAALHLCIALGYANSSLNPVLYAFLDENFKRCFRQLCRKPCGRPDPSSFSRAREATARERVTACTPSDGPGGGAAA
Chain of Sodium-dependent dopamine transporter (Q01959 whole entry): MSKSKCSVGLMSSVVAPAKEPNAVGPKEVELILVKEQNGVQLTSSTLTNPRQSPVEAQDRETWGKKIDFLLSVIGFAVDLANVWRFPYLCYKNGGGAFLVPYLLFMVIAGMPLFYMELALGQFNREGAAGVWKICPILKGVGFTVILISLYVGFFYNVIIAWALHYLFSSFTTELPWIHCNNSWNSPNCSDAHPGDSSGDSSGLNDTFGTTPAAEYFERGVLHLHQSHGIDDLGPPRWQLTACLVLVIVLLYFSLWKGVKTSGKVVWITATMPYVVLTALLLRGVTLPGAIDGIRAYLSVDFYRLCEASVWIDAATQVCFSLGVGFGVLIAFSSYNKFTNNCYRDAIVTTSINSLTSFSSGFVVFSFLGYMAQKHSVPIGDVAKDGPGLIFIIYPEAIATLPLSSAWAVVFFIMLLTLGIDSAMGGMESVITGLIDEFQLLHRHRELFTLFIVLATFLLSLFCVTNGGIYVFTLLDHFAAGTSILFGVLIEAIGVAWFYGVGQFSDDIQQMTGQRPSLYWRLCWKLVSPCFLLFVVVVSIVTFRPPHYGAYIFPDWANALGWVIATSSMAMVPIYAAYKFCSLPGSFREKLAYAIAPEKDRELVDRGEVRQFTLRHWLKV

Take `CCCN1C[C@H](CSC)C[C@@H]2c3cccc4[nH]cc(c34)C[C@H]21` [PERGOLIDE]: the IC50 entry in test [1], in test [2] (insect cells), in test [3], in test [4], in test [5] and in test [6] (reticulocytes) was “Not Active” each time. In addition, the Ki entry in test [5] is on record as “Not Active”.

Regarding LIPOPOLYSACCHARIDE E. COLI O55:B5, the 50% inhibitory concentration (IC50) result is “Not Active” in test [1]; 0.191 µM in test [2] (insect cells, read-out: IC50); “Not Active” in test [3]; “Not Active” in test [4]; “Not Active” in test [5]; “Not Active” in test [6] (reticulocytes). The Ki result in test [1], in test [3], in test [4], in test [5] and in test [6] (reticulocytes) was “Not Active” in each case.

For `CC(O)CO` (stereo unspecified) [PROPYLENE GLYCOL], the IC50 result in test [1], in test [2] (insect cells), in test [3], in test [4], in test [5] and in test [6] (reticulocytes) was “Not Active” throughout. In addition, in test [5], the Ki entry is “Not Active”.

Turning to `CC(C)C(Br)C(=O)NC(N)=O` (stereo unspecified) [BROMISOVALUM], the IC50 result in test [1], in test [2] (insect cells), in test [3], in test [4], in test [5] and in test [6] (reticulocytes) was “Not Active” each time. Also, the Ki entry in test [5] is listed as “Not Active”.

`CCC(C)n1ncn(-c2ccc(N3CCN(c4ccc(OCC5COC(Cn6cncn6)(c6ccc(Cl)cc6Cl)O5)cc4)CC3)cc2)c1=O` (stereo unspecified) [ITRACONAZOLE]: the half-maximal inhibitory concentration (IC50) result in test [1] was “Not Active”; in test [2] (read-out: IC50) it was 3.89 µM; in test [3], “Not Active”; in test [4] it was “Not Active”; in test [5] it was “Not Active”; in test [6] (reticulocytes), “Not Active”. For the same molecule, the Ki result in test [5] is “Not Active”.

Take `Nc1c(Br)cc(Br)cc1CN[C@H]1CC[C@H](O)CC1` [AMBROXOL]: the 50% inhibitory concentration (IC50) entry in test [1], in test [2] (insect cells), in test [3], in test [4], in test [5] and in test [6] (reticulocytes) was “Not Active” in each case. Besides, in test [5], the Ki entry is “Not Active”.

For `CC(C)(C)NCC(O)c1cc(Cl)c(N)c(Cl)c1` (stereo unspecified) [CLENBUTEROL], the IC50 result in test [1], in test [2] (insect cells), in test [3], in test [4], in test [5] and in test [6] (reticulocytes) was “Not Active” in each case. For the same molecule, the Ki result in test [5] is “Not Active”.

With `C[C@](N)(Cc1ccc(O)c(O)c1)C(=O)O` [METHYLDOPA], the IC50 entry in test [1] is “Not Active”; in test [2] (read-out: IC50), 5.18 µM; in test [3] it was “Not Active”; in test [4] it was “Not Active”; in test [5], “Not Active”; in test [6] (read-out: IC50), 2.13 µM. In addition, in test [5], the Ki result is given as “Not Active”.

As for `Cc1ccccc1N1C(=O)c2cc(S(N)(=O)=O)c(Cl)cc2NC1C` (stereo unspecified) [METOLAZONE], the IC50 entry in test [1], in test [2] (insect cells), in test [3], in test [4], in test [5] and in test [6] (reticulocytes) was “Not Active” throughout. In test [5], the Ki entry was “Not Active”.

For the molecule `Cc1ccc(N(CC2=NCCN2)c2cccc(O)c2)cc1` [PHENTOLAMINE], the IC50 result in test [1], in test [2] (insect cells), in test [3], in test [4], in test [5] and in test [6] (reticulocytes) was “Not Active” each time. Also, the Ki result in test [5] is on record as “Not Active”.

As to `Nc1nc2c(ncn2CCC(CO)CO)c(=O)[nH]1` [PENCICLOVIR], the IC50 entry in test [1], in test [2] (insect cells), in test [3], in test [4], in test [5] and in test [6] (reticulocytes) was “Not Active” each time. In test [5], the Ki entry is listed as “Not Active”.
